# Data as given in article PMC4481117 (Molecular Pain, 2015).
# Test system: IC-21 macrophages
# Assay: Phagocytosis of Dyn A-coated latex beads by IC-21 macrophages
# Type: cell-based, murine
# Conditions: 1 μm beads preincubated with 50 μg/ml Dyn A, 30 min at 37 °C; vs control beads
# Description: Fig. 8 Effect of Dyn A on phagocytosis of latex beads. a, Fluorescent latex beads (1x10^9/ml) were preincubated with Dyn A (50 μg/ml) for 40 min at 37 °C. Soluble peptide was removed from the beads by high-speed centrifugation. Peptide-coated beads were incubated with adherent IC-21 macrophages for 30 min at 37 °C. Nonphagocytosed beads were removed from cells by washing with PBS. […] Rat IgG2b was used as an isotype control for anti-αM mAb M1/70. Phagocytosis was quantified for five random fields per well using a 20x objective. Phagocytosis of Dyn A-treated beads was assigned as 100 %.
# A suspension of fluorescent […] latex beads (1x10^9/ml) (FluoSpheres sulfate microspheres, Life Technologies, Carlsbad, CA) was incubated with 50 μg/ml of Dyn A for 40 min at 37 °C, then unbound peptide was removed by centrifugation. IC-21 murine macrophages (5 × 10^5/ml) were adhered on the cover glass for 30 min and 3 × 10^6 of peptide-coated beads were added to adherent IC-21 cells. After incubating for 30 minutes at 37 °C, nonphagocytosed beads were separated from macrophages by washing with 3x1 ml PBS and phagocytosed beads were counted in the presence of trypan blue. […] The ratio of beads per macrophage was quantified by taking photographs of five fields for each well using a Leica DM4000 B microscope (Leica Microsystems, Buffalo Grove, IL) with a 20 × objective.
smiles,measurement,value
CC[C@H](C)[C@H](NC(=O)[C@H](CCCNC(=N)N)NC(=O)[C@H](CCCNC(=N)N)NC(=O)[C@H](CC(C)C)NC(=O)[C@H](Cc1ccccc1)NC(=O)CNC(=O)CNC(=O)[C@@H](N)Cc1ccc(O)cc1)C(=O)N[C@@H](CCCNC(=N)N)C(=O)N1CCC[C@H]1C(=O)N[C@@H](CCCCN)C(=O)N[C@@H](CC(C)C)C(=O)N[C@@H](CCCCN)C(=O)N[C@@H](Cc1c[nH]c2ccccc12)C(=O)N[C@@H](CC(=O)O)C(=O)N[C@@H](CC(N)=O)C(=O)N[C@@H](CCC(N)=O)C(=O)O [Dyn A],Augmentation of bead uptake,~ 10 -fold
